How the values were obtained:
AKT isoforms = assay: Phosphoprotein array, AKT; format: cell-based; settings: cells treated for 24 hours; PI-3kinase signaling pathway
Procedure: (§1) FIG. 43A-43C. A phosphoprotein array was used to determine which signaling pathways were affected by treatment of cells with SKI-267077. […] A phosphoprotein array (R and D Systems) was used to measure the level of phosphorylation of cellular proteins. Protein phosphorylation was determined according to the manufacturer's instructions.

H2030 cells = assay: Cell cycle analysis (FACS), H2030; format: cell-based, human; settings: 24 hours
Procedure: FIGS. 2A-2B. SKI-267077 induces cell cycle arrest. H2030 cells were treated with SKI-267077 for 24 h. Cell cycle progression was analyzed by FACS analysis. FIG. 2A: Percent of cells in S-phase. FIG. 2B: percent of cells in G1 phase.
Cell cycle analysis. For cell cycle analysis, cells were plated at a density of 500,000 cells per well in 6-well plates. Attached cells were treated with drugs for 24 h. Cells were then collected, washed with PBS and fixed in 70% ethanol for 1 h. For FACS analysis, fixed cells were washed with cold PBS resuspended in PBS containing 200 μg/mL propidium iodide and 0.1% sodium citrate. Flow cytometry was performed on a Becton-Dickinson FACSCalibur flow cytometer and data the processed using FlowJo software.
SKI-267077 induces cell cycle arrest at the G1 phase. Cell cycle progression in the presence of SKI-267077 was determined by FACS analysis of H2030 cells that were treated for 24 hours.

H1975 = assay: [3H]-thymidine incorporation assay, H1975; format: cell-based, human; settings: H1975, mutant EGFR
Procedure: FIGS. 41A-41B. SKI-267077 inhibits DNA synthesis. SKI-267077 was used to elucidate the mechanism by which this agent inhibits cell growth.
[^3H]-thymidine incorporation assay. Cells were seeded in 12-well plates at a density of 100 000 cells/well and treated with inhibitors for 24 hours. H3-thymidine (3 μCi/mL) was then added for 3 hours. Cells were washed twice with PBS, fixed with cold 10% TCA (in PBS) for 30 min then lysed with 0.5% NaOH/0.5% SDS. DNA was scraped from the wells and the amount of H3-thymidine incorporated determined by liquid scintillation counting.

cells = assay: Annexin V binding (FACS) apoptosis assay; format: cell-based; settings: 48 hours, FITC-labeled annexin V
Procedure: FIG. 42. SKI-267077 induces apoptosis. Cells were treated for 48 hours with SKI-267077 and then binding of FITC-labeled annexin V to cells determined FACS analysis was used to determine the amount of annexin V-positive cells.

[1] = tested on: MAPK isoforms ERK1 and ERK2; assay: Phosphoprotein array, ERK1 and ERK2; format: cell-based; settings: cells treated for 24 hours; MAPK signaling pathway
Procedure: as §1

O=c1c(Cl)c(Cl)cnn1-c1ccc(Cl)cc1Cl [compound 267077]
phosphorylation of AKT isoforms (AKT isoforms): blocked phosphorylation of all three AKT isoforms
percent of cells in the G1 phase (H2030 cells): increase in the percent of cells in the induce G1 phase
percent of cells in the S phase (H2030 cells): reduction of the percent of cells in the S phase
DNA synthesis (H1975): dose-dependent reduction in DNA synthesis
apoptosis, binding of annexin-V to the cell surface (cells): induction of apoptosis
phosphorylation of ERK1 and ERK2 [1]: reduced phosphorylation of the MAPK isoforms ERK1 and ERK2

Source: patent US20100210649A1, “PYRIDAZINONES AND FURAN-CONTAINING COMPOUNDS” (Sloan-Kettering Institute for Cancer Research, priority 2006, published 2010)
